In brackets after ≈: the same amount, converted by molar mass. Blank lines part the entries; values can stand above or below the molecule they belong to.
How the values were obtained:
Assay type in all cases: functional
Candida albicans [1] = assay: Antifungal activity against Candida albicans SC5314 assessed as reduction in fungal growth incubated for 24 hrs by CLSI based microdilution analysis
Candida albicans [2] = assay: Antifungal activity against fluconazole-resistant Candida albicans 102 assessed as inhibition of fungal growth measured for 24 hrs by CLSI based microdilution analysis
Nakaseomyces glabratus = assay: Antifungal activity against Candida glabrata ATCC 15126 assessed as reduction in fungal growth incubated for 24 hrs by CLSI based microdilution analysis
Candida tropicalis = assay: Antifungal activity against Candida tropicalis ATCC 750 assessed as reduction in fungal growth incubated for 24 hrs by CLSI based microdilution analysis
Candida albicans [3] = assay: Antifungal activity against fluconazole-resistant Candida albicans 15 assessed as inhibition of fungal growth measured for 24 hrs by CLSI based microdilution analysis
Candida albicans [4] = assay: Antifungal activity against fluconazole-resistant Candida albicans 901 assessed as inhibition of fungal growth measured for 24 hrs by CLSI based microdilution analysis
Candida parapsilosis = assay: Antifungal activity against Candida parapsilosis ATCC 22019 assessed as reduction in fungal growth incubated for 24 hrs by CLSI based microdilution analysis; conditions: Lodderomyces parapsilosis
Candida albicans [5] = assay: Antifungal activity against fluconazole-resistant Candida albicans 24D assessed as inhibition of fungal growth measured for 24 hrs by CLSI based microdilution analysis
Candida albicans [6] = assay: Antifungal activity against fluconazole-resistant Candida albicans 13 assessed as inhibition of fungal growth measured for 24 hrs by CLSI based microdilution analysis
Aspergillus fumigatus = assay: Antifungal activity against Aspergillus fumigatus CGMCC3 7795 assessed as reduction in fungal growth incubated for 48 hrs by CLSI based microdilution analysis
Cryptococcus neoformans = assay: Antifungal activity against Cryptococcus neoformans CGMCC3 1563 assessed as reduction in fungal growth incubated for 72 hrs by CLSI based microdilution analysis
Candida albicans [7] = assay: Antifungal activity against fluconazole-resistant Candida albicans 112869 assessed as inhibition of fungal growth measured for 24 hrs by CLSI based microdilution analysis
[8] = system: Meyerozyma guilliermondii; assay: Antifungal activity against Meyerozyma guilliermondii ATCC 6260 assessed as reduction in fungal growth incubated for 24 hrs by CLSI based microdilution analysis

Structure (SMILES): COc1ccc2c(ccn2CCCCCCN2CCN(CC(O)(Cn3cncn3)c3ccc(F)cc3F)CC2)c1 (centres undefined)
- MIC80 (Candida albicans [1]): 0.25 µg/mL (≈ 0.452 µM)

Structure (SMILES): OC(CN1CCN(CCn2c3ccccc3c3ccccc32)CC1)(Cn1cncn1)c1ccc(F)cc1F (centres undefined)
- MIC80 (Candida albicans [1]): 0.125 µg/mL (≈ 0.242 µM)

Structure (SMILES): OC(CN1CCN(CCCCCCCCCn2ccc3cc(Br)ccc32)CC1)(Cn1cncn1)c1ccc(F)cc1F (centres undefined)
- MIC80 (Candida albicans [1]): 0.25 µg/mL (≈ 0.388 µM)

Structure (SMILES): OC(CN1CCN(CCCCCCCCCn2ccc3cc(Cl)ccc32)CC1)(Cn1cncn1)c1ccc(F)cc1F (centres undefined)
- MIC80 (Candida albicans [1]): 0.25 µg/mL (≈ 0.417 µM)

Structure (SMILES): OC(CN1CCN(CCCn2ccc3ccc(Cl)cc32)CC1)(Cn1cncn1)c1ccc(F)cc1F (centres undefined)
- MIC80 (Candida albicans [2]): 0.062 µg/mL (≈ 0.12 µM)
- MIC80 (Nakaseomyces glabratus): 0.312 µg/mL (≈ 0.606 µM)
- MIC80 (Candida tropicalis): 0.625 µg/mL (≈ 1.21 µM)
- MIC80 (Candida albicans [3]): 2.5 µg/mL (≈ 4.85 µM)
- MIC80 (Candida albicans [1]): 0.062 µg/mL (≈ 0.12 µM)
- MIC80 (Candida albicans [4]): 5 µg/mL (≈ 9.71 µM)
- MIC80 (Candida parapsilosis): 0.125 µg/mL (≈ 0.243 µM)
- MIC80 (Candida albicans [5]): 0.062 µg/mL (≈ 0.12 µM)
- MIC80 (Candida albicans [6]): 0.062 µg/mL (≈ 0.12 µM)
- MIC80 (Aspergillus fumigatus): 5 µg/mL (≈ 9.71 µM)
- MIC80 (Cryptococcus neoformans): 0.031 µg/mL (≈ 0.0602 µM)
- MIC80 (Candida albicans [7]): 0.25 µg/mL (≈ 0.485 µM)
- MIC80 [8]: 0.125 µg/mL (≈ 0.243 µM)

Structure (SMILES): OC(CN1CCN(CCCCCCn2ccc3cc(Br)ccc32)CC1)(Cn1cncn1)c1ccc(F)cc1F (centres undefined)
- MIC80 (Candida albicans [1]): 0.125 µg/mL (≈ 0.208 µM)

Structure (SMILES): OC(CN1CCN(CCn2c3ccccc3c3cc(Br)ccc32)CC1)(Cn1cncn1)c1ccc(F)cc1F (centres undefined)
- MIC80 (Candida albicans [1]): 0.25 µg/mL (≈ 0.42 µM)

Structure (SMILES): OC(CN1CCN(CCCCCCn2ccc3ccc(F)cc32)CC1)(Cn1cncn1)c1ccc(F)cc1F (centres undefined)
- MIC80 (Candida albicans [1]): 0.125 µg/mL (≈ 0.231 µM)

Structure (SMILES): OC(CN1CCN(CCn2ncc3ccccc32)CC1)(Cn1cncn1)c1ccc(F)cc1F (centres undefined)
- MIC80 (Candida albicans [1]): 0.062 µg/mL (≈ 0.133 µM)

Structure (SMILES): O[C@@](CN1CCN(CCn2ncc3ccccc32)CC1)(Cn1cncn1)c1ccc(F)cc1F
- MIC80 (Candida albicans [1]): 0.031 µg/mL (≈ 0.0663 µM)

Structure (SMILES): OC(CN1CCN(CCCCCCCCCCn2ccc3cc(Br)ccc32)CC1)(Cn1cncn1)c1ccc(F)cc1F (centres undefined)
- MIC80 (Candida albicans [1]): 0.25 µg/mL (≈ 0.38 µM)

Structure (SMILES): COc1ccc2c(ccn2CCCN2CCN(CC(O)(Cn3cncn3)c3ccc(F)cc3F)CC2)c1 (centres undefined)
- MIC80 (Candida albicans [2]): 0.062 µg/mL (≈ 0.121 µM)
- MIC80 (Nakaseomyces glabratus): 0.312 µg/mL (≈ 0.611 µM)
- MIC80 (Candida tropicalis): 0.625 µg/mL (≈ 1.22 µM)
- MIC80 (Candida albicans [3]): 0.625 µg/mL (≈ 1.22 µM)
- MIC80 (Candida albicans [1]): 0.062 µg/mL (≈ 0.121 µM)
- MIC80 (Candida albicans [4]): 5 µg/mL (≈ 9.79 µM)
- MIC80 (Candida parapsilosis): 0.062 µg/mL (≈ 0.121 µM)
- MIC80 (Candida albicans [5]): 0.125 µg/mL (≈ 0.245 µM)
- MIC80 (Candida albicans [6]): 0.062 µg/mL (≈ 0.121 µM)
- MIC80 (Aspergillus fumigatus): 5 µg/mL (≈ 9.79 µM)
- MIC80 (Cryptococcus neoformans): 0.125 µg/mL (≈ 0.245 µM)
- MIC80 (Candida albicans [7]): 0.25 µg/mL (≈ 0.49 µM)
- MIC80 [8]: 0.125 µg/mL (≈ 0.245 µM)

Structure (SMILES): COc1ccc2c(ccn2CCCCCN2CCN(CC(O)(Cn3cncn3)c3ccc(F)cc3F)CC2)c1 (centres undefined)
- MIC80 (Candida albicans [1]): 0.125 µg/mL (≈ 0.232 µM)

Structure (SMILES): OC(CN1CCN(CCn2c3ccccc3c3cc(Cl)ccc32)CC1)(Cn1cncn1)c1ccc(F)cc1F (centres undefined)
- MIC80 (Candida albicans [1]): 0.25 µg/mL (≈ 0.454 µM)

Structure (SMILES): O[C@](CN1CCN(CCn2ncc3ccccc32)CC1)(Cn1cncn1)c1ccc(F)cc1F
- MIC80 (Candida albicans [1]): 50 µg/mL (≈ 107 µM)

Structure (SMILES): OC(CN1CCN(CCCn2ccc3ccccc32)CC1)(Cn1cncn1)c1ccc(F)cc1F (centres undefined)
- MIC80 (Candida albicans [2]): 0.062 µg/mL (≈ 0.129 µM)
- MIC80 (Nakaseomyces glabratus): 0.625 µg/mL (≈ 1.3 µM)
- MIC80 (Candida tropicalis): 0.625 µg/mL (≈ 1.3 µM)
- MIC80 (Candida albicans [3]): 2.5 µg/mL (≈ 5.2 µM)
- MIC80 (Candida albicans [1]): 0.062 µg/mL (≈ 0.129 µM)
- MIC80 (Candida albicans [4]): 5 µg/mL (≈ 10.4 µM)
- MIC80 (Candida parapsilosis): 0.125 µg/mL (≈ 0.26 µM)
- MIC80 (Candida albicans [5]): 0.125 µg/mL (≈ 0.26 µM)
- MIC80 (Candida albicans [6]): 0.062 µg/mL (≈ 0.129 µM)
- MIC80 (Aspergillus fumigatus): 10 µg/mL (≈ 20.8 µM)
- MIC80 (Cryptococcus neoformans): 0.062 µg/mL (≈ 0.129 µM)
- MIC80 (Candida albicans [7]): 0.062 µg/mL (≈ 0.129 µM)
- MIC80 [8]: 0.125 µg/mL (≈ 0.26 µM)

Structure (SMILES): OC(CN1CCN(CCn2ccc3cccnc32)CC1)(Cn1cncn1)c1ccc(F)cc1F (centres undefined)
- MIC80 (Candida albicans [1]): 0.062 µg/mL (≈ 0.133 µM)

Results, then the molecule that gave them:

- MIC80 (Candida albicans [1]): 0.25 µg/mL (≈ 0.515 µM)
Structure (SMILES): O=C(c1ccc2c(c1)OCCO2)N1CCN(CC(O)(Cn2cncn2)c2ccc(F)cc2F)CC1 (centres undefined)

- MIC80 (Candida albicans [1]): 0.062 µg/mL (≈ 0.113 µM)
Structure (SMILES): OC(CN1CCN(CCn2ncc3cc(Br)ccc32)CC1)(Cn1cncn1)c1ccc(F)cc1F (centres undefined)

- MIC80 (Candida albicans [1]): 0.031 µg/mL (≈ 0.0624 µM)
Structure (SMILES): COc1ccc2c(ccn2CCN2CCN(CC(O)(Cn3cncn3)c3ccc(F)cc3F)CC2)c1 (centres undefined)

- MIC80 (Candida albicans [1]): 0.062 µg/mL (≈ 0.113 µM)
Structure (SMILES): OC(CN1CCN(CCn2ccc3cc(Br)cnc32)CC1)(Cn1cncn1)c1ccc(F)cc1F (centres undefined)

- MIC80 (Candida albicans [1]): 0.125 µg/mL (≈ 0.26 µM)
Structure (SMILES): O=S(=O)(c1ccc(F)cc1)N1CCN(CC(O)(Cn2cncn2)c2ccc(F)cc2F)CC1 (centres undefined)

- MIC80 (Candida albicans [1]): 0.125 µg/mL (≈ 0.251 µM)
Structure (SMILES): O=S(=O)(c1ccc(Cl)cc1)N1CCN(CC(O)(Cn2cncn2)c2ccc(F)cc2F)CC1 (centres undefined)

- MIC80 (Candida albicans [1]): 0.25 µg/mL (≈ 0.524 µM)
Structure (SMILES): O=C(c1cccc2ccccc12)N1CCN(CC(O)(Cn2cncn2)c2ccc(F)cc2F)CC1 (centres undefined)

- MIC80 (Candida albicans [1]): 0.125 µg/mL (≈ 0.262 µM)
Structure (SMILES): Cc1ccc(S(=O)(=O)N2CCN(CC(O)(Cn3cncn3)c3ccc(F)cc3F)CC2)cc1 (centres undefined)

- MIC80 (Candida albicans [1]): 0.25 µg/mL (≈ 0.487 µM)
Structure (SMILES): O=C(c1cc2cc(F)ccc2oc1=O)N1CCN(CC(O)(Cn2cncn2)c2ccc(F)cc2F)CC1 (centres undefined)

- MIC80 (Candida albicans [1]): 0.25 µg/mL (≈ 0.53 µM)
Structure (SMILES): O=C(c1ccc2c(c1)OCO2)N1CCN(CC(O)(Cn2cncn2)c2ccc(F)cc2F)CC1 (centres undefined)

- MIC80 (Candida albicans [1]): 0.125 µg/mL (≈ 0.245 µM)
Structure (SMILES): Cc1ccc2oc(=O)c(C(=O)N3CCN(CC(O)(Cn4cncn4)c4ccc(F)cc4F)CC3)cc2c1 (centres undefined)

From ChEMBL document CHEMBL5338795, “Novel Triazoles with Potent and Broad-Spectrum Antifungal Activity In Vitro and In Vivo” (J Med Chem, 2023)
